According to patent US20260217698A1 (BEYANG THERAPEUTICS CO., LTD., priority 2022, published 2026):

Experiments:
[1] = target: VEGFR2 (Homo sapiens, UniProt P35968); experiment: Kinase inhibition, Mobility Shift Assay/IMAP, VEGFR2; type: biochemical; design: purchased Carna 08-191
Text: (§1) This assay directly monitored the ability of compounds to inhibit kinase phosphorylation by measuring non-phosphorylated and phosphorylated substrates in kinase reactions by using Mobility Shift Assays/IMAP™ analysis.
(§2) Read the conversion ratio data on CaliperEZ Reader II. Convert conversion rates into inhibition ratio data.
(§3) “Min” indicates the readout of the control well without the addition of enzymes; and “Max” indicates the readout of the control well with the addition of DMSO Fit IC50 values with XL Fit excel add-in version […].
(§4) X indicates the log value of compound concentration, and Y indicates the inhibition ratio (% inhibition).

[2] = target: T1, EGFR (Homo sapiens, UniProt P00533); experiment: Kinase inhibition, Mobility Shift Assay/IMAP, EGFR; type: biochemical
T1 construct: purchased Carna 08-115
Text: as §1, §2, §3, §4

T1 sequence (P00533 669-1210 limits assumed): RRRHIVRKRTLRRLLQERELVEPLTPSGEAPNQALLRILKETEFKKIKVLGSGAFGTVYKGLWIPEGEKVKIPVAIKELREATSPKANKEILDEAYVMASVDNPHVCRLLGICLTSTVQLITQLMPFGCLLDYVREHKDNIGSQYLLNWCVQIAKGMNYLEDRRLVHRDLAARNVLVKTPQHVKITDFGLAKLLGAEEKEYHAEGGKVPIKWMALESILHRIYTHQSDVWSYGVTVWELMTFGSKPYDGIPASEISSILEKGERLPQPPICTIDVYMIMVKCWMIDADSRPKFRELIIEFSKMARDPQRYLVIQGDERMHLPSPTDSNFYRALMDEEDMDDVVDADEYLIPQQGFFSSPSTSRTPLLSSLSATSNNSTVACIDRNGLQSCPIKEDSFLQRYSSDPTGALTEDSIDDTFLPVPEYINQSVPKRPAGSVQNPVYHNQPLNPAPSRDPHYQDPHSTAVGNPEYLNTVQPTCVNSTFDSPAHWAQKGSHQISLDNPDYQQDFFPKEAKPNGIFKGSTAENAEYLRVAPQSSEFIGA
Chain of VEGFR2 (P35968 790-1356 limits assumed): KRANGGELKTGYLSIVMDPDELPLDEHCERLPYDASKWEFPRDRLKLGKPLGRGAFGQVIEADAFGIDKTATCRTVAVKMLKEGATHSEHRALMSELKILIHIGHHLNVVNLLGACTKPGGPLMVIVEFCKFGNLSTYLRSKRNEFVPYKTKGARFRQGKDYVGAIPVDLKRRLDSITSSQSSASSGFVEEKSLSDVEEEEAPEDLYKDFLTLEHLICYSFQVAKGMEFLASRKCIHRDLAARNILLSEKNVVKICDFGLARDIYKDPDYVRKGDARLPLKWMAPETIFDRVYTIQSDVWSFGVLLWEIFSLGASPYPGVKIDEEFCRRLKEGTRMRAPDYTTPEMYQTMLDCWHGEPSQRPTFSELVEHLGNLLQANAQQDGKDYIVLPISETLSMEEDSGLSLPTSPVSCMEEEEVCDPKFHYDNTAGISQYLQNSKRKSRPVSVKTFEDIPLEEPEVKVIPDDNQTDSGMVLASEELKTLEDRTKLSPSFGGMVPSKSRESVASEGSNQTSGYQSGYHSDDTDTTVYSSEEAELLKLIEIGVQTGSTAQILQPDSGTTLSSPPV

Row | Compound | IC50 [1] | IC50 [2]
1 | Cn1nc(COc2nsc(NC(=O)NCCCCN3CCCC3)c2C(N)=O)c2ccccc21 [Compound T002, 3-((1-methyl-1H-indazol-3-yl)methoxy)-5-(3-(4-(pyrrolidin-1-yl)butyl)ureido)isothiazole-4-carboxamide] | 130 nM | 
2 | NC(=O)c1c(OCc2cccc(OC3CC3)c2)nsc1NC(=O)NCCCCN1CCCC1 [Compound T003, 3-((3-cyclopropoxybenzyl)oxy)-5-(3-(4-(pyrrolidin-1-yl)butyl)ureido)isothiazole-4-carboxamide] | 112 nM | 
3 | Cn1ncc2c(COc3nsc(NC(=O)NCCCCN4CCCC4)c3C(N)=O)cccc21 [Compound T004, 3-((1-methyl-1H-indazol-4-yl)methoxy)-5-(3-(4-(pyrrolidin-1-yl)butyl)ureido)isothiazole-4-carboxamide] | 163 nM | 
4 | Cc1cc(COc2nsc(NC(=O)NCCCCN3CCCC3)c2C(N)=O)nn1C [Compound T009, 3-((1,5-dimethyl-1H-pyrazol-3-yl)methoxy)-5-(3-(4-(pyrrolidin-1-yl)butyl)ureido)isothiazole-4-carboxamide] | 217 nM | 
5 | COc1cccc(COc2nsc(NC(=O)NCCCCN3CCCC3)c2C(N)=O)c1OC [Compound T032, 3-((2,3-dimethoxybenzyl)oxy)-5-(3-(4-(pyrrolidin-1-yl)butyl)ureido)isothiazole-4-carboxamide] | 56.8 nM | 39600 nM
6 | CC(C)(C)OC(=O)N1CCN(CCn2cc(Nc3snc(OCc4c(F)cc(Br)cc4F)c3C(N)=O)cn2)CC1 [Compound T046] | 62 nM | 
7 | CC(C)NC(=O)c1cccc(COc2nsc(NC(=O)NCCCCN3CCCC3)c2C(N)=O)c1 [Compound T057, 3-((3-(isopropylcarbamoyl)benzyl)oxy)-5-(3-(4-(pyrrolidin-1-yl)butyl)ureido)isothiazole-4-carboxamide] | 152 nM | > 60000 nM
8 | COc1cc(F)c(F)c(COc2nsc(NC(=O)NCCCCN3CCCC3)c2C(N)=O)c1F [Compound T142, 5-(4-pyrrolidin-1-ylbutylcarbamoylamino)-3-[(2,3,6-trifluoro-5-methoxy-phenyl)methoxy]isothiazole-4-carboxamide] | 6.6 nM | 31000 nM
9 | NC(=O)c1c(OCc2c(F)ccc(OC(F)F)c2F)nsc1NC(=O)NCCCCN1CCCC1 [Compound T148, 3-[[3-(difluoromethoxy)-2,6-difluoro-phenyl]methoxy]-5-(4-pyrrolidin-1-ylbutylcarbamoylamino)isothiazole-4-carboxamide] | 16 nM | 4010 nM
10 | NC(=O)c1c(OCc2cc(C(=O)NC3CC3)ccc2F)nsc1NC(=O)NCCCN1CCNCC1 [Compound T153, 3-[[5-(cyclopropylcarbamyl)-2-fluoro-phenyl]methoxy]-5-(3-piperazin-1-ylpropylcarbamylamino)isothiazol-4-formamide] | 0.66 nM | 
11 | CC(=O)N1CCN(CCCNC(=O)Nc2snc(OCc3cc(C(=O)NC4CC4)ccc3F)c2C(N)=O)CC1 [Compound T156, 5-[3-(4-acetylpiperazin-1-yl)propylcarbamoylamino]-3-[[5-(cyclopropylcarbamoyl)-2-fluoro-phenyl]methoxy]isothiazole-4-carboxamide] | 1.44 nM | 
12 | NCCCNC(=O)Nc1snc(OCc2cc(C(=O)NC3CC3)ccc2F)c1C(N)=O [Compound T167, 5-(3-aminopropylcarbamoylamino)-3-[[5-(cyclopropylcarbamoyl)-2-fluoro-phenyl]methoxy]isothiazole-4-carboxamide] | 0.95 nM | 
13 | NC(=O)c1ccc(F)c(COc2nsc(NC(=O)NCCCN3CC[C@H](F)C3)c2C(N)=O)c1 [Compound T168, 3-[(5-carbamoyl-2-fluoro-phenyl)methoxy]-5-[3-[(3S)-3-fluoropyrrolidin-1-yl]propylcarbamoylamino]isothiazole-4-carboxamide] | 8.45 nM | 
14 | NC(=O)c1c(OCc2cc(C(=O)NC3CC3)ccc2F)nsc1NC(=O)NCCCO [Compound T170, 3-[[5-(cyclopropylcarbamoyl)-2-fluoro-phenyl]methoxy]-5-(3-hydroxypropylcarbamoylamino)isothiazole-4-carboxamide] | 1.12 nM | 
